# Source: PubChem BioAssay (NCI)
#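 Cultured in 96-well plates, cells were exposed to test compound for 48 hours across five concentrations. GI50 = concentration required for 50% inhibition of growth. TGI is the concentration that stops growth completely.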
# What was measured:
# Assay in all cases: DTP human tumour cell line panel, 48 h
# [1] = system: UACC-62 melanoma
# [2] = system: 786-0 renal
# [3] = system: HCT-116 colon
# [4] = system: SR leukemia
# [5] = system: UACC-257 melanoma
# [6] = system: HCC-2998 colon
# [7] = system: SK-MEL-2 melanoma
# [8] = system: NCI-H23 lung
# [9] = system: SF-539 CNS
# [10] = system: OVCAR-8 ovarian
# [11] = system: MDA-MB-231 breast
# [12] = system: NCI-H522 lung
# [13] = system: SNB-19 CNS
# [14] = system: A498 renal
# [15] = system: CCRF-CEM leukemia
# [16] = system: MCF7 breast
# [17] = system: SW-620 colon
# [18] = system: M14 melanoma
# [19] = system: CAKI-1 renal
# [20] = system: OVCAR-5 ovarian
# [21] = system: HOP-92 NSCLC
# [22] = system: SF-268 CNS
# [23] = system: HS 578T breast
# [24] = system: PC-3 prostate
# [25] = system: HCT-15 colon
# [26] = system: SK-MEL-28 melanoma
# [27] = system: SK-MEL-5 melanoma
# [28] = system: NCI-H460 lung
# [29] = system: HOP-62 NSCLC
# [30] = system: BT-549 breast
# [31] = system: NCI/ADR-RES ovarian
# [32] = system: SF-295 CNS
# [33] = system: ACHN renal
# [34] = system: A549 NSCLC
# [35] = system: OVCAR-4 ovarian
# [36] = system: EKVX NSCLC
# [37] = system: MDA-MB-435
# [38] = system: HT29 colon
# [39] = system: TK-10 renal
# [40] = system: OVCAR-3 ovarian
# [41] = system: NCI-H226 lung
# [42] = system: SNB-75 CNS
# [43] = system: MOLT-4 leukemia
# [44] = system: UO-31 renal
# [45] = system: RXF 393 renal
# [46] = system: KM12 colon
# [47] = system: U251 CNS
# [48] = system: K-562 leukemia
# [49] = system: SK-OV-3 ovarian
# [50] = system: DU-145 prostate
# [51] = system: SN12C renal
# [52] = system: T-47D breast
# [53] = system: LOX IMVI melanoma
# [54] = system: COLO 205 colon
# [55] = system: RPMI-8226 leukemia
# [56] = system: MALME-3M melanoma
# [57] = system: IGROV1 ovarian
# [58] = system: HL-60(TB) leukemia
smiles,measurement,setting,value
Cn1cc(CNCC2CCN(c3ncc(C(=O)NO)cn3)CC2)c2ccccc21,GI50,[1],11.8 nM
same,TGI,[1],41.5 nM
same,GI50,[2],41.4 nM
same,TGI,[2],8890 nM
same,GI50,[3],< 10 nM
same,TGI,[3],32.8 nM
same,GI50,[4],< 12.4 nM
same,TGI,[4],> 53900 nM
same,GI50,[5],11.9 nM
same,TGI,[5],363 nM
same,GI50,[6],14.1 nM
same,TGI,[6],83.7 nM
same,GI50,[7],< 15.1 nM
same,TGI,[7],334 nM
same,GI50,[8],21.8 nM
same,TGI,[8],436 nM
same,GI50,[9],21 nM
same,TGI,[9],13400 nM
same,GI50,[10],< 10 nM
same,GI50,[11],40 nM
same,TGI,[11],5580 nM
same,GI50,[12],< 10 nM
same,TGI,[12],61.5 nM
same,GI50,[13],25.1 nM
same,TGI,[13],900 nM
same,GI50,[14],10.2 nM
same,TGI,[14],27.4 nM
same,GI50,[15],< 11.6 nM
same,TGI,[15],49300 nM
same,GI50,[16],< 10 nM
same,TGI,[16],2530 nM
same,GI50,[17],14.7 nM
same,TGI,[17],2110 nM
same,GI50,[18],11.4 nM
same,TGI,[18],1250 nM
same,GI50,[19],23.3 nM
same,TGI,[19],169 nM
same,GI50,[20],< 10 nM
same,TGI,[20],598 nM
same,GI50,[21],< 10.7 nM
same,TGI,[21],39.9 nM
same,GI50,[22],25.9 nM
same,TGI,[22],896 nM
same,GI50,[23],18.5 nM
same,TGI,[23],42600 nM
same,GI50,[24],12 nM
same,TGI,[24],18000 nM
same,GI50,[25],144 nM
same,TGI,[25],15800 nM
same,GI50,[26],12.2 nM
same,TGI,[26],102 nM
same,GI50,[27],< 10.8 nM
same,TGI,[27],30.7 nM
same,GI50,[28],13.1 nM
same,TGI,[28],11500 nM
same,GI50,[29],12.8 nM
same,TGI,[29],838 nM
same,GI50,[30],225 nM
same,TGI,[30],14300 nM
same,GI50,[31],107 nM
same,TGI,[31],5590 nM
same,GI50,[32],16.9 nM
same,TGI,[32],188 nM
same,GI50,[33],22.9 nM
same,TGI,[33],96.2 nM
same,GI50,[34],12.3 nM
same,TGI,[34],519 nM
same,GI50,[35],15.5 nM
same,TGI,[35],52100 nM
same,GI50,[36],25.5 nM
same,TGI,[36],23400 nM
same,GI50,[37],12 nM
same,TGI,[37],123 nM
same,GI50,[38],< 10 nM
same,TGI,[38],587 nM
same,GI50,[39],< 10.7 nM
same,TGI,[39],68.3 nM
same,GI50,[40],15.8 nM
same,TGI,[40],126 nM
same,GI50,[41],35.1 nM
same,TGI,[41],1090 nM
same,GI50,[42],< 10.8 nM
same,TGI,[42],8620 nM
same,GI50,[43],< 13.5 nM
same,TGI,[43],> 52700 nM
same,GI50,[44],24.7 nM
same,TGI,[44],447 nM
same,GI50,[45],< 10.7 nM
same,TGI,[45],38.5 nM
same,GI50,[46],21.5 nM
same,TGI,[46],589 nM
same,GI50,[47],13.3 nM
same,TGI,[47],128 nM
same,GI50,[48],< 12 nM
same,TGI,[48],> 46900 nM
same,GI50,[49],19.9 nM
same,TGI,[49],361 nM
same,GI50,[50],12.4 nM
same,TGI,[50],4410 nM
same,GI50,[51],34.4 nM
same,TGI,[51],15700 nM
same,GI50,[52],< 10 nM
same,TGI,[52],543 nM
same,GI50,[53],11.7 nM
same,TGI,[53],32.5 nM
same,GI50,[54],< 10.4 nM
same,TGI,[54],107 nM
same,GI50,[55],< 10 nM
same,TGI,[55],40500 nM
same,GI50,[56],< 10 nM
same,TGI,[56],15200 nM
same,GI50,[57],24.5 nM
same,TGI,[57],352 nM
same,GI50,[58],24.2 nM
same,TGI,[58],17500 nM
COc1cc(Cn2c(-c3nonc3N)nc3ccccc32)ccc1C,GI50,[1],848 nM
same,TGI,[1],> 100000 nM
same,GI50,[2],550 nM
same,TGI,[2],23600 nM
same,GI50,[3],460 nM
same,TGI,[3],> 100000 nM
same,GI50,[4],516 nM
same,TGI,[4],> 100000 nM
same,GI50,[5],419 nM
same,TGI,[5],> 100000 nM
same,GI50,[6],1420 nM
same,TGI,[6],> 100000 nM
same,GI50,[7],417 nM
same,TGI,[7],9970 nM
same,GI50,[8],1020 nM
same,TGI,[8],> 55600 nM
same,GI50,[9],226 nM
same,TGI,[9],663 nM
same,GI50,[10],729 nM
same,TGI,[10],> 100000 nM
same,GI50,[11],1020 nM
same,TGI,[11],38100 nM
same,GI50,[12],243 nM
same,TGI,[12],735 nM
same,GI50,[13],626 nM
same,TGI,[13],45500 nM
same,GI50,[14],142 nM
same,TGI,[14],1660 nM
same,GI50,[15],403 nM
same,TGI,[15],> 100000 nM
same,GI50,[16],348 nM
same,TGI,[16],> 100000 nM
same,GI50,[17],334 nM
same,TGI,[17],> 100000 nM
same,GI50,[18],426 nM
same,TGI,[18],34800 nM
same,GI50,[19],477 nM
same,TGI,[19],> 100000 nM
same,GI50,[20],1590 nM
same,TGI,[20],43500 nM
same,GI50,[21],566 nM
same,TGI,[21],30000 nM
same,GI50,[22],825 nM
same,TGI,[22],> 100000 nM
same,GI50,[23],326 nM
same,TGI,[23],24400 nM
same,GI50,[24],399 nM
same,TGI,[24],> 100000 nM
same,GI50,[25],427 nM
same,TGI,[25],> 100000 nM
same,GI50,[26],2910 nM
same,TGI,[26],> 62700 nM
same,GI50,[27],354 nM
same,TGI,[27],19800 nM
same,GI50,[28],377 nM
same,TGI,[28],> 100000 nM
same,GI50,[29],568 nM
same,TGI,[29],21300 nM
same,GI50,[30],463 nM
same,TGI,[30],49400 nM
same,GI50,[31],362 nM
same,TGI,[31],> 37400 nM
same,GI50,[32],340 nM
same,TGI,[32],5630 nM
same,GI50,[33],726 nM
same,TGI,[33],> 93800 nM
same,GI50,[34],625 nM
same,TGI,[34],> 100000 nM
same,GI50,[35],731 nM
same,TGI,[35],> 95200 nM
same,GI50,[37],168 nM
same,TGI,[37],642 nM
same,GI50,[38],358 nM
same,TGI,[38],7300 nM
same,GI50,[39],1090 nM
same,TGI,[39],30000 nM
same,GI50,[40],328 nM
same,TGI,[40],906 nM
same,GI50,[41],1910 nM
same,TGI,[41],> 100000 nM
same,GI50,[42],248 nM
same,TGI,[42],1130 nM
same,GI50,[43],692 nM
same,TGI,[43],> 100000 nM
same,GI50,[44],580 nM
same,TGI,[44],> 100000 nM
same,GI50,[45],304 nM
same,TGI,[45],3350 nM
same,GI50,[46],468 nM
same,TGI,[46],> 100000 nM
same,GI50,[47],501 nM
same,TGI,[47],15600 nM
same,GI50,[48],375 nM
same,TGI,[48],> 100000 nM
same,GI50,[49],493 nM
same,TGI,[49],32000 nM
same,GI50,[50],605 nM
same,TGI,[50],> 37800 nM
same,GI50,[51],3690 nM
same,TGI,[51],> 100000 nM
same,GI50,[52],574 nM
same,TGI,[52],> 100000 nM
same,GI50,[53],649 nM
same,TGI,[53],> 100000 nM
same,GI50,[54],337 nM
same,TGI,[54],1390 nM
same,GI50,[55],493 nM
same,TGI,[55],> 100000 nM
same,GI50,[56],526 nM
same,TGI,[56],72700 nM
same,GI50,[57],1220 nM
same,TGI,[57],> 61600 nM
same,GI50,[58],345 nM
same,TGI,[58],50800 nM
